In ChEMBL document CHEMBL6103630, “Discovery of Novel 2,4,5-Trisubstituted Pyrimidine Derivatives as Potent and Selective FGFR Inhibitors against Gatekeeper Mutants for the Treatment of NSCLC” (J Med Chem, 2025):
Calls of active or inactive are those of the source. The calls are words filed in the database; no cut-off is given here.

How the values were obtained:
[1] = biological target: T1, Fibroblast growth factor receptor 2 (Homo sapiens, UniProt P21802); assay: Inhibition of wild type FGFR2 (unknown origin) by caliper mobility shift assay
Target sequence in this assay (P21802 whole entry): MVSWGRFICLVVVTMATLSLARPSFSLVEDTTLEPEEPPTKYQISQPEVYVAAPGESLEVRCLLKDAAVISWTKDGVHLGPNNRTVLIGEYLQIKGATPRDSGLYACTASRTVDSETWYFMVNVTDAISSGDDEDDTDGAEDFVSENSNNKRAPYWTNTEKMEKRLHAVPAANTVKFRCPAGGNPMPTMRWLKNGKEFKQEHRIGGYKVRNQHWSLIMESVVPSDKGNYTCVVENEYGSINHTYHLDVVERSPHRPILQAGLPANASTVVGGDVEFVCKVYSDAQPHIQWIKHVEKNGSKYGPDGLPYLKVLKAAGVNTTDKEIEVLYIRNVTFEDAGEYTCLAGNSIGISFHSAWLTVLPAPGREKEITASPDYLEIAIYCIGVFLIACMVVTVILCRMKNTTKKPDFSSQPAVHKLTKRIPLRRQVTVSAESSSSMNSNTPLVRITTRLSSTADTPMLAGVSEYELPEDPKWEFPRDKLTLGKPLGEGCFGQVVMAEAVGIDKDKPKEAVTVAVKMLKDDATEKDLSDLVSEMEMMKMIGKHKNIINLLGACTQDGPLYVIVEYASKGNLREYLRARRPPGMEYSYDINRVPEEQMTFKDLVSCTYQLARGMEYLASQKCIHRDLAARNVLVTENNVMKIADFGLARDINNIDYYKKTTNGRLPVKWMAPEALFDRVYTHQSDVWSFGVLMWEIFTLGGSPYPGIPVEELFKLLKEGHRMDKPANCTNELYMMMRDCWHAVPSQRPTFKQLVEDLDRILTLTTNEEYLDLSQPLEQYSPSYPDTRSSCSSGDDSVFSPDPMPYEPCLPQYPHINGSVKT

[2] = biological target: T2, Fibroblast growth factor receptor 3 (Homo sapiens, UniProt P22607); assay: Inhibition of wild type FGFR3 (unknown origin) by caliper mobility shift assay
Target sequence in this assay (P22607 whole entry): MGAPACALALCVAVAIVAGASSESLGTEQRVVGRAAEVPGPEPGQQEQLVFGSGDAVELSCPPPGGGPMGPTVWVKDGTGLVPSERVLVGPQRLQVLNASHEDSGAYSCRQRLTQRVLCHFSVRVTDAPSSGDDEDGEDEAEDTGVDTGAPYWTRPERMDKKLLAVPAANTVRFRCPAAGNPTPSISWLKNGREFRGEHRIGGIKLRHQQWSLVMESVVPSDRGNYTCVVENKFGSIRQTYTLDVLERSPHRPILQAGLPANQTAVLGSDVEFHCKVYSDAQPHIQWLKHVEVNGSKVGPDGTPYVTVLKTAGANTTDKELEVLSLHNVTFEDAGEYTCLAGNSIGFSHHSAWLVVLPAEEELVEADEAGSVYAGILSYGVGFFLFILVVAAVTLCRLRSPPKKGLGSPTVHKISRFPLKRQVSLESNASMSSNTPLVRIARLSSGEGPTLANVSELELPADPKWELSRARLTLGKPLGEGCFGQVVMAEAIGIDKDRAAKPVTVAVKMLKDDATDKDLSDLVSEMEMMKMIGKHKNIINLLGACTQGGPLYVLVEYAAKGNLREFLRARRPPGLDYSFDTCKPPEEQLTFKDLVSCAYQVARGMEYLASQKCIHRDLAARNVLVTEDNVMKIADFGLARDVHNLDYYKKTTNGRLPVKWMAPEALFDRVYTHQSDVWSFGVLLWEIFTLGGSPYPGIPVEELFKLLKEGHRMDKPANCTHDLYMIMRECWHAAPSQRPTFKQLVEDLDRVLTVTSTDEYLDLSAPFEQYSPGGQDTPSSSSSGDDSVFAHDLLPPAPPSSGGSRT

[3] = biological target: T1, Fibroblast growth factor receptor 2; assay: Binding affinity to FGFR2 (unknown origin) at 0.1 uM
Target sequence in this assay (P21802 22-821 limits assumed): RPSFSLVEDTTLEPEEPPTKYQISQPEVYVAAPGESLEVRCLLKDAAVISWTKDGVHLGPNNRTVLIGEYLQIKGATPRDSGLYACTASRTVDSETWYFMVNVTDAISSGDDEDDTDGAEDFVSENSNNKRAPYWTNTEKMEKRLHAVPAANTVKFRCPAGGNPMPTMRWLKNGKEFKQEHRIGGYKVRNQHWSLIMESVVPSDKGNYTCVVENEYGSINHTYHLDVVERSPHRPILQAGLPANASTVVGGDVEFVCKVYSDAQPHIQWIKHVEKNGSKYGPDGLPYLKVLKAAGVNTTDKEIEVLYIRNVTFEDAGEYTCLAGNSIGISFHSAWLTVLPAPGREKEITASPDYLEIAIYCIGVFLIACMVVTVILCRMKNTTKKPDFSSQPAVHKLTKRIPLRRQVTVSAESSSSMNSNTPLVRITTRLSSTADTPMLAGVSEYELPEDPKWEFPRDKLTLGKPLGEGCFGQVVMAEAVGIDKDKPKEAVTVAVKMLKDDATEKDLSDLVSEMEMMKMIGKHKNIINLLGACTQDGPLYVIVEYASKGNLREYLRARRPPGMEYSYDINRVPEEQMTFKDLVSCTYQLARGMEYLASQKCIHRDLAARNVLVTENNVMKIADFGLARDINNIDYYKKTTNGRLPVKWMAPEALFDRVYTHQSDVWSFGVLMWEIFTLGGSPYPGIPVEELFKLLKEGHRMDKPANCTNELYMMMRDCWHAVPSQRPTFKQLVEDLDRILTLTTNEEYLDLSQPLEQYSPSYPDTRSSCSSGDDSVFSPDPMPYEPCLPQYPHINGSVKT

[4] = biological target: T2, Fibroblast growth factor receptor 3; assay: Binding affinity to FGFR3 (unknown origin) at 0.1 uM
Target sequence in this assay (P22607 23-806 limits assumed): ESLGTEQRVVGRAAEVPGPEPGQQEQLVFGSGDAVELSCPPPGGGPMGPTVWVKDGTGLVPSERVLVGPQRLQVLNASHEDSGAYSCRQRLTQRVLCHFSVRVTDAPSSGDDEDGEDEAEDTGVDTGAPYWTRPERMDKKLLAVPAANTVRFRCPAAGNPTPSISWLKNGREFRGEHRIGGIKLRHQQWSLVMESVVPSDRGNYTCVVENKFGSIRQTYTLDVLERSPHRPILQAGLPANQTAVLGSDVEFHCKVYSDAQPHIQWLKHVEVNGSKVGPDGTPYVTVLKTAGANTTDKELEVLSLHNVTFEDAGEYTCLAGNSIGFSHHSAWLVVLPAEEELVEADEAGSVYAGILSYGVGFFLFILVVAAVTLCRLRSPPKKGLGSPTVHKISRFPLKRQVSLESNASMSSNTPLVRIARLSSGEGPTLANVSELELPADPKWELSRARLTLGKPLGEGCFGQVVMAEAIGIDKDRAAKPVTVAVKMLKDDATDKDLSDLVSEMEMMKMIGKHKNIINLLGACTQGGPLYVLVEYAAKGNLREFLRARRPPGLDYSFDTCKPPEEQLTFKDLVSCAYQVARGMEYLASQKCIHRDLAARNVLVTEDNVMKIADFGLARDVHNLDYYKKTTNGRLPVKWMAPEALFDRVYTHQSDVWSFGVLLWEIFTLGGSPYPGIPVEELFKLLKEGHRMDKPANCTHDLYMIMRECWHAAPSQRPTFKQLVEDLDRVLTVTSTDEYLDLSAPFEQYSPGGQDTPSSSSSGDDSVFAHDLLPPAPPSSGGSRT

[5] = biological target: Platelet-derived growth factor receptor beta (Homo sapiens) (UniProt P09619); assay: Inhibition of PDGFRbeta (unknown origin)
Sequence of Platelet-derived growth factor receptor beta (Homo sapiens) (P09619 whole entry): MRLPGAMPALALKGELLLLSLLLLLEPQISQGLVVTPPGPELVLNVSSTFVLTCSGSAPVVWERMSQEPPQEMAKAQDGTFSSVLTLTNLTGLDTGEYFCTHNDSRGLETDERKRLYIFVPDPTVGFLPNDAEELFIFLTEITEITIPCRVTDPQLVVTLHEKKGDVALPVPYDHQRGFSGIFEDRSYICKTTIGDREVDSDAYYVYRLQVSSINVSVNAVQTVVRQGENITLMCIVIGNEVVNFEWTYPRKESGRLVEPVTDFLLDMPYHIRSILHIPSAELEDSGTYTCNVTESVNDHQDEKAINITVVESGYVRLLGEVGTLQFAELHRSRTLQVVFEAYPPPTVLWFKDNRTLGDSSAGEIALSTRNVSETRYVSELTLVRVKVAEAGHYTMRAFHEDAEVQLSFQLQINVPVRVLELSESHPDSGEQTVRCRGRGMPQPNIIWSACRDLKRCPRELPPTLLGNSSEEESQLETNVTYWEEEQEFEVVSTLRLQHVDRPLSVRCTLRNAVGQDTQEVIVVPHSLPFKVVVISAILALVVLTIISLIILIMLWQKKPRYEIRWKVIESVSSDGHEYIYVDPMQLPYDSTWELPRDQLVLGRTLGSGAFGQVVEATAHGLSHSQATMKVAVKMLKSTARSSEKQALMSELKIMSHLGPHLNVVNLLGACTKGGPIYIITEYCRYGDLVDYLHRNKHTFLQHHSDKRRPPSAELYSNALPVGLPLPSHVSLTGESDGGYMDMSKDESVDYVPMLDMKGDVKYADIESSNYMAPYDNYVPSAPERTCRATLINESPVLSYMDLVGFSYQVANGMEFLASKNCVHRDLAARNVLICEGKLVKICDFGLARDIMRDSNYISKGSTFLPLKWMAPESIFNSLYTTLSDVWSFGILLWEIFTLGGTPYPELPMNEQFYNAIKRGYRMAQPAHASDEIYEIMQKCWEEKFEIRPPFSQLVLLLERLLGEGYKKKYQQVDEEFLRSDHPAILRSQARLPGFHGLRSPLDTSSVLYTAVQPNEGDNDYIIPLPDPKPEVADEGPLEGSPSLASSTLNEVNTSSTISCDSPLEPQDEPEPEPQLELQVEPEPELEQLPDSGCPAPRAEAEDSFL

[6] = biological target: Epidermal growth factor receptor (Homo sapiens) (UniProt P00533); assay: Inhibition of EGFR (unknown origin)
[7] = tested on: NCI-H1581; assay: Inhibition of colony formation in human NCI-H1581 cells incubated for 48 hrs by crystal violet staining based assay; assay type: functional, cell-based; conditions: dose 10-40 nM
[8] = tested on: A549; assay: Inhibition of colony formation in human A549 cells at 0.25 to 1.0 uM incubated for 48 hrs by crystal violet staining based assay; assay type: functional, cell-based; conditions: dose 0.25-1 µM
[9] = tested on: NCI-H1581; assay: Inhibition of DNA replication in human NCI-H1581 cells incubated for 1 hrs by EdU staining based analysis; assay type: functional, cell-based; conditions: dose 100.0 µM
[10] = tested on: NCI-H1581; assay: Inhibition of cell migration in human NCI-H1581 cells incubated upto 72 hrs by wound healing assay; assay type: functional, cell-based; conditions: dose 10-40 µM
[11] = tested on: NCI-H1581; assay: Inhibition of cell migration in human NCI-H1581 cells at 40 nM incubated upto 72 hrs by wound healing assay (reference value: 80%); assay type: functional
[12] = tested on: NCI-H1581; assay: Inhibition of cell adhesion in human NCI-H1581 cells by crystal violet staining based analysis; assay type: functional; conditions: dose 10-40 nM
[13] = tested on: A549; assay: Inhibition of AKT (unknown origin) phosphorylation in human A549 cells at 250 to 1000 nM by Western blotting analysis; assay type: cell-based; conditions: dose 250-1000 nM
[14] = Cmax in male Sprague-Dawley rat at 2 mg/kg, iv by UHPLC-MS/MS analysis; assay type: ADME, organism-based; conditions: in vivo
[15] = Cmax in male Sprague-Dawley rat at 10 mg/kg, po by UHPLC-MS/MS analysis; assay type: ADME, organism-based; conditions: in vivo
[16] = Tmax in male Sprague-Dawley rat at 2 mg/kg, iv by UHPLC-MS/MS analysis; assay type: ADME, organism-based; conditions: in vivo
[17] = Tmax in male Sprague-Dawley rat at 10 mg/kg, po by UHPLC-MS/MS analysis; assay type: ADME, organism-based; conditions: in vivo
[18] = Half life in male Sprague-Dawley rat at 2 mg/kg, iv by UHPLC-MS/MS analysis; assay type: ADME, organism-based; conditions: in vivo
[19] = AUC(0 to t) in male Sprague-Dawley rat at 10 mg/kg, po by UHPLC-MS/MS analysis; assay type: ADME, organism-based; conditions: in vivo
[20] = Oral bioavailability in male Sprague-Dawley rat at 2 mg/kg, iv by UHPLC-MS/MS analysis; assay type: ADME, organism-based; conditions: in vivo
[21] = Toxicity in ICR mouse assessed as change in lung weight at 80 mg/kg, po measured after 7 days; assay type: organism-based; conditions: in vivo, 168 h, time 7 day
[22] = Toxicity in ICR mouse assessed as histopathological changes in liver at 80 mg/kg, po by H and E staining based analysis; assay type: organism-based; conditions: in vivo
[23] = Toxicity in ICR mouse assessed as histopathological changes in kidney at 80 mg/kg, po by H and E staining based analysis; assay type: organism-based; conditions: in vivo
[24] = biological target: T1, Fibroblast growth factor receptor 2; assay: Covalent irreversible binding affinity to FGFR2 (unknown origin) by MALDI-TOF MS analysis
Target sequence in this assay (P21802 22-821 limits assumed): as the sequence (P21802 22-821 limits assumed) above

[25] = Antitumor activity against rat L6 cells harboring FGFR V561M mutant xenografted in BALB/c nude mouse assessed as tumor growth inhibition at 60 mg/kg relative to control; assay type: functional; conditions: read-out: TGI
[26] = Toxicity in BALB/c nude mouse xenografted with rat L6 cells harboring FGFR V561M mutant assessed as change in spleen weight at 30 to 60 mg/kg and measured daily for 14 days; assay type: organism-based; conditions: in vivo, 336 h, dose 30-60 mg/kg, time 14 day
[27] = Toxicity in BALB/c nude mouse xenografted with rat L6 cells harboring FGFR V561M mutant assessed as change in kidney weight at 30 to 60 mg/kg and measured daily for 14 days; assay type: organism-based; conditions: in vivo, 336 h, dose 30-60 mg/kg, time 14 day
[28] = tested on: Mus musculus; assay: In vivo inhibition of AKT phosphorylation in BALB/c nude mouse xenografted with rat L6 cells harboring FGFR1 V561M mutant assessed as suppression of AKT level in tumor at 60 mg/kg by Western blotting analysis; assay type: functional, organism-based
[29] = tested on: Mus musculus; assay: In vivo inhibition of ERK phosphorylation in BALB/c nude mouse xenografted with rat L6 cells harboring FGFR1 V561M mutant assessed as suppression of ERK level in tumor at 60 mg/kg by Western blotting analysis; assay type: functional, organism-based
[30] = tested on: Mus musculus; assay: In vivo inhibition of FGFR1 signaling pathway in BALB/c nude mouse xenografted with human NCI-H1581 cells assessed as reduction in FGFR1 phosphorylation level in tumor by Western blotting analysis; assay type: functional, organism-based
[31] = Toxicity in BALB/c nude mouse xenografted with human NCI-H1581 cells assessed as change in body weight
[32] = Toxicity in BALB/c nude mouse xenografted with human NCI-H1581 cells assessed as change in spleen weight and measured after 14 days; conditions: 336 h, time 14 day
[33] = Toxicity in BALB/c nude mouse xenografted with human NCI-H1581 cells assessed as change in lung weight and measured after 14 days; assay type: tissue-based; conditions: 336 h, time 14 day
[34] = tested on: L6; assay: Antitumor activity against rat L6 cells harboring FGFR1 V561M mutant xenografted in BALB/c nude mouse assessed as induction of apoptosis in tumor at 30 to 60 mg/kg by H and E staining based analysis; assay type: functional, organism-based; conditions: dose 30-60 mg/kg
[35] = tested on: NCI-H1581; assay: Antitumor activity against human NCI-H1581 cells xenografted in BALB/c nude mouse assessed as inhibition of tumor cell proliferation by Ki-67 staining based analysis; assay type: functional
[36] = tested on: NCI-H1581; assay: cells; conditions: Homo sapiens, NCI-H1581, 48 h
Description: Antiproliferative activity against human NCI-H1581 cells assessed as inhibition of cell proliferation incubated for 48 hrs by MTT assay

[37] = tested on: A549; assay: cells; conditions: Homo sapiens, A549, 48 h
Description: Antiproliferative activity against human A549 cells assessed as inhibition of cell proliferation incubated for 48 hrs by MTT assay

- IC50 [1]: 15.6 nM
- IC50 [2]: 19.4 nM
- Activity [3]: Not active; Reduced Affinities Observed
- Activity [4]: Not active; Reduced Affinities Observed
- Cmax [14]: 816 ng/mL
- Cmax [15]: 2250 ng/mL
- Tmax [16]: 4.8 min
- Tmax [17]: 30 min
- half-life [18]: 213 min
- AUC(0-t) [19]: 7800 ng·h/mL
- bioavailability [20]: 47.7%
- Activity [24]: Active
- IC50 [36]: 18 nM
- IC50 [37]: 380 nM
SMILES: C=CC(=O)Nc1ccc(Nc2nc(Nc3ccc(N4C[C@@H](C)N[C@@H](C)C4)c(OC)c3)ncc2Cl)cc1Cl
- inhibition [5]: Not active; Moderate To Weak Inhibitory Activity Observed
- inhibition [6]: Not active; Moderate To Weak Inhibitory Activity Observed
- inhibition [7]: Dose-dependent-effect
- inhibition [8]: Active
- inhibition [9]: Dose-dependent-effect
- inhibition [10]: Dose-dependent-effect
- inhibition at 0.04 µM [11]: 40%
- inhibition [12]: Dose-dependent-effect
- inhibition [13]: Dose-dependent-effect
- Activity [21]: Non-toxic
- Activity [22]: Non-toxic
- Activity [23]: Non-toxic
- inhibition in vivo at 60 mg/kg [25]: 69%
- Activity [26]: Non-toxic
- Activity [27]: Non-toxic
- inhibition [28]: Active
- inhibition [29]: Active
- inhibition [30]: Active
- Activity [31]: Non-toxic
- Activity [32]: Non-toxic
- Activity [33]: Non-toxic
- Activity [34]: Active
- Activity [35]: Active
